Test results taken from article PMC13339814 (Microbiology Spectrum, 2026).
Entries after “also recorded” stand apart in the source; their conditions may differ. Where no end group is shown, it is not given here. The star is where a group is joined. pNA = O=[N+]([O-])c1ccc(N*)cc1; Cbz = O=C(OCc1ccccc1)*

Assays:
PSP464 [1] = experiment: HRMS analysis of 11-mer gliadin peptide degradation by PSP464; assay type: in vitro ADME, Stenotrophomonas maltophilia
Protocol: Gliadin degradation reactions were performed in duplicate for PSP464 activity on the 11-mer and PSP692 activity on the 33-mer at time points of 30 min, 1 h, 2 h, and 4 h. Following incubation, duplicate reactions were pooled prior to downstream processing to minimize technical variability. Reactions were quenched by the addition of trifluoroacetic acid (TFA) in water to a final concentration of 0.1% (vol/vol). To remove intact enzyme and retain low-molecular-weight degradation products, samples were centrifuged through Microcon centrifugal filter units with a 10 kDa MWCO at room temperature for 30 min. The filtrate, containing peptides <10 kDa, was collected and subjected to C18 ZipTip protocol for desalting prior to LC-MS/MS analysis. The elution solvent for desalting was 50% acetonitrile with 0.1% formic acid in water.
Samples were analysed on a Bruker IMPACT HD mass spectrometer in HRMS mode. MS scans were acquired over an m/z range of 50–3,500 at high resolution in positive ion mode. Raw data were processed in MZMine v3.9 ([38]), and the fragment list was exported as an Excel list followed by manual annotation. Chromatograms were generated for identified gliadin-derived peptides across the time course.

[2] = tested on: human gastrointestinal proteases; experiment: human gastrointestinal proteases; details: cited from earlier work
PSP692 [3] = experiment: purified recombinant PSP692 in pH 6 PBS buffer; details: Segatella copri, 37°C, up to 4 h
PSP692 [4] = experiment: purified PSP692 (1 µM) in 1× phosphate-buffered saline (PBS) at pH 6.0; details: Segatella copri, 37°C
PSP464 [5] = experiment: purified PSP464 (1 µM) in 100 mM glycine-HCl buffer at pH 4.0; details: Stenotrophomonas maltophilia, 37°C

In the case of GPQQSFPEQEA [11-mer], the “intensity of parent peak (m/z ~1,218, +1) after incubation with PSP464” value (PSP464 [1]; all digestion time points, 30 min to 4 h, pooled duplicates) is reported as “reduced” and the “peptide fragments formed from 11-mer by PSP464 (m/z 998 and 872)” value (PSP464 [1]; sequential C-terminal cleavage, sequences assigned from m/z) is reported as “GPQQSFPEQ and GPQQSFPE”.

In the case of LQLQPFPQPQLPYPQPQLPYPQPQLPYPQPQPF, the not cleaved [2] is listed as “evades degradation by human gastrointestinal proteases” and the fragment found (PSP692 [3]) is listed as “LQLQP, major, 30 min; also recorded: QPFPQ; also recorded: QLQPFP, major, 30 min”.

In the case of Cbz-Gly-Pro-pNA, the cleaved bond (PSP692 [4]) is reported as “Pro-pNA”.

In the case of Cbz-Pro-Pro-Phe-pNA, the cleaved bond (PSP464 [5]) is reported as “Phe-pNA”.
